The values that follow come from ChEMBL document CHEMBL1121846, “Synthesis and pharmacological evaluation of sulfonium analogues of dopamine: nonclassical dopamine agonists” (J Med Chem, 1981).

For experiment [1], the species on record is Rattus norvegicus. As to the kind of experiment: Contralateral rotation produced by intrastriatal injection in rats with unilateral 6-hydroxydopamine-induced lesions of the substantia nigra at 90 nmol; turns/5 min. In kind it is functional.
The species entered for experiment [2] is Rattus norvegicus. As to the kind of experiment: Contralateral rotation produced by intrastriatal injection in rats with unilateral 6-hydroxydopamine-induced lesions of the substantia nigra at 10 nmol. In kind it is functional.
Experiment [3] is filed under the species Rattus norvegicus. As to the kind of experiment: Contralateral rotation produced by intrastriatal injection in rats with unilateral 6-hydroxydopamine-induced lesions of the substantia nigra at 30 nmol; turns/5 min. Format: functional.
Experiment [4] is filed under the species Rattus norvegicus. As to the kind of experiment: Maximal degree of inhibition was determined from displacement of [3H]dopamine binding to rat brain striatal membrane. Format: functional.
For experiment [5], the species on record is Rattus norvegicus. As to the kind of experiment: Compound concentration required to reduce specific binding of tritiated dopamine to rat brain striatal membrane.
The species named for experiment [6] is Rattus norvegicus. As to the kind of experiment: Contralateral rotation produced by intrastriatal injection in rats with unilateral 6-hydroxydopamine-induced lesions of the substantia nigra at 10 nmol; turns/5 min. In kind it is functional.
Experiment [7] is filed under the species Rattus norvegicus. As to the kind of experiment: Contralateral rotation produced by intrastriatal injection in rats with unilateral 6-hydroxydopamine-induced lesions of the substantia nigra at 2 microL; turns/5 min. Format: functional.
For experiment [8], the species on record is Rattus norvegicus. As to the kind of experiment: Compound concentration required to reduce specific binding of tritiated dopamine to rat brain striatal membrane by 50 % was reported.
For experiment [9], the species on record is Rattus norvegicus. The conditions noted are these: Striatum, 1 uM.
For experiment [10], the species on record is Rattus norvegicus. As to the kind of experiment: Maximal degree of inhibition at 3-30 uM concentration was determined from displacement of [3H]-dopamine binding to rat brain striatal membrane. Format: functional.

On to `C[S+](C)CC(=O)c1ccc(O)c(O)c1.[I-]`, for which the Rate of rotation was determined as 38.83 in the experiment filed under Rattus norvegicus [1], 8.4 turns 5min-1 in the experiment listed under Rattus norvegicus [2] and 25.33 in the experiment filed under Rattus norvegicus [3]. In the experiment listed under Rattus norvegicus [4], the inhibition (as a rule, the relative decrease from the control value, in per cent) was determined as 29%. For the same molecule, in the experiment listed under Rattus norvegicus [5], the IC50 (commonly the point on the concentration scale where inhibition reaches its midpoint) is 370 nM.

As for `C[S+](C)CCc1ccc(O)c(O)c1.[I-]`, the results for the Rate of rotation in the experiment listed under Rattus norvegicus [1], in the experiment listed under Rattus norvegicus [6] and in the experiment listed under Rattus norvegicus [3] were 31.5, 11.25 and 20.75, respectively. Also, the inhibition in the experiment filed under Rattus norvegicus [4] amounted to 19%. In addition, the IC50 in the experiment listed under Rattus norvegicus [5] was 440 nM.

In turn, `O=C1O[C@H]([C@@H](O)CO)C(O)=C1O` [ASCORBIC ACID] yielded a Rate of rotation in the experiment filed under Rattus norvegicus [7] of 4.5.

For `NCCc1ccc(O)c(O)c1` [DOPAMINE], the Rate of rotation in the experiment listed under Rattus norvegicus [6] came out at 39.75. The half-inhibitory concentration (IC50) in the experiment listed under Rattus norvegicus [8] worked out at 29 nM. The Total binding in the experiment filed under Rattus norvegicus [9] came out at 72%.

`C[S+](C)C` displayed an inhibition in the experiment filed under Rattus norvegicus [10] of 9%.
